One assay has as its target T1, XRN2 (Homo sapiens, UniProt Q9H0D6).
T1 sequence (Q9H0D6 1-790): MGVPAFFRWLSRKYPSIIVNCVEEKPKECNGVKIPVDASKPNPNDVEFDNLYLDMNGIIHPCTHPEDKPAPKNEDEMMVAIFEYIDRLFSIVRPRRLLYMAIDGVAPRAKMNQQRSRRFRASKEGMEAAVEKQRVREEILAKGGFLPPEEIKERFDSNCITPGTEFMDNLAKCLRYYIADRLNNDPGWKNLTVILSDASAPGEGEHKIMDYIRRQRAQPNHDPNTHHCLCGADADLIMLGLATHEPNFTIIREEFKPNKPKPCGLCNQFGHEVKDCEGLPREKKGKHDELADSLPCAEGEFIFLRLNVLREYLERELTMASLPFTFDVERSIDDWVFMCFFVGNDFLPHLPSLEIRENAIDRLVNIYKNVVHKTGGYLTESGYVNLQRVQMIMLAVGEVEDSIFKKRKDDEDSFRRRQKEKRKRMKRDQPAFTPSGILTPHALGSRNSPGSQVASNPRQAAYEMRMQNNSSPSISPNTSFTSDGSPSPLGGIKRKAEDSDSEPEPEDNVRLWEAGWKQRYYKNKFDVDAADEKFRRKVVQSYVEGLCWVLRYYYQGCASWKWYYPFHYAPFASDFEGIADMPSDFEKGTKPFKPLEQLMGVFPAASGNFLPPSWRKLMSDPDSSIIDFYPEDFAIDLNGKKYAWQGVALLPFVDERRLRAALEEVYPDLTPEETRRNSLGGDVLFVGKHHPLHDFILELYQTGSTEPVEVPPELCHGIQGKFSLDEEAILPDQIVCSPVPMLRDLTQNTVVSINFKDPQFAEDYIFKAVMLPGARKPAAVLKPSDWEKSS
Nature of the assay: SPR. In kind it is binding.

The target in assay [1] is XRN1 (5’-3’ exoribonuclease 1) (Homo sapiens, UniProt Q8IZH2). The experiment in a line: SPR. In kind it is binding.
XRN1 (5’-3’ exoribonuclease 1), sequence (Q8IZH2 1-1191): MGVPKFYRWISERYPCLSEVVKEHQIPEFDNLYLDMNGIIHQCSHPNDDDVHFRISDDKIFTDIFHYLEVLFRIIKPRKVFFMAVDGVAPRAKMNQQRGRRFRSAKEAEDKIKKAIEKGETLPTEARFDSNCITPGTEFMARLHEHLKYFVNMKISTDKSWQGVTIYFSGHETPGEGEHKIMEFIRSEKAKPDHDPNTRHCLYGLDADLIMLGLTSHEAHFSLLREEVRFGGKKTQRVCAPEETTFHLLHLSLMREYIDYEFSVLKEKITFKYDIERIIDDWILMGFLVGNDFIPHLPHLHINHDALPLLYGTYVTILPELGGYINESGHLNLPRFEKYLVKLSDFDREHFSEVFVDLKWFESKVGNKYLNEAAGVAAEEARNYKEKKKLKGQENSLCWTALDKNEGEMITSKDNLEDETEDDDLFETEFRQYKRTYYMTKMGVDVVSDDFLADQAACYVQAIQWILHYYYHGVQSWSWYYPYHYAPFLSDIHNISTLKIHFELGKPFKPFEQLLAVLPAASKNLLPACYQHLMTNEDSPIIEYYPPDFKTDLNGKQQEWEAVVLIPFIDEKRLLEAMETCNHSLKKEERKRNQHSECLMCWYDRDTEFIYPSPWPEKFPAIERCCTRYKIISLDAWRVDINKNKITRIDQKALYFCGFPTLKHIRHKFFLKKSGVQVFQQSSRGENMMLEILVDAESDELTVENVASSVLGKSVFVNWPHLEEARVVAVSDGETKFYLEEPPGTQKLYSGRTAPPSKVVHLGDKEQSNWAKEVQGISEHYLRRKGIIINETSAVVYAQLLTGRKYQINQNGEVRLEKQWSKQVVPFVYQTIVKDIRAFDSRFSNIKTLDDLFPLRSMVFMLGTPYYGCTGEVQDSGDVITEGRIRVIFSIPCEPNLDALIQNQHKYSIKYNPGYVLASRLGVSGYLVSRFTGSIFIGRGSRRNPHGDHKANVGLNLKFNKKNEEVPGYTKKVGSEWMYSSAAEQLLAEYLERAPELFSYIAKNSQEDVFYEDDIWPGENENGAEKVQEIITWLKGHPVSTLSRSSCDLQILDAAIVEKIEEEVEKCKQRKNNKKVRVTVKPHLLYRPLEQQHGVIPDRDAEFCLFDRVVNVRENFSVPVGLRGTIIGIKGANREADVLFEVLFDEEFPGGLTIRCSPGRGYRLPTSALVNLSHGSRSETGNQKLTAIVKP

Molecules are shown by their SMILES.

As for `Nc1ncnc2c1ncn2[C@@H]1O[C@H](COP(=O)(O)O)[C@@H](OP(=O)(O)O)[C@H]1O` [pAp, adenosine-3’,5’-bisphosphate], the Kd amounted to 0.014 ± 0.004 µM on XRN2 and 0.012 ± 0.001 µM in assay [1].

The record behind these values is PMC11982291 (Communications Biology, 2025).
